Values quoted from earlier work in patent US20220031669A1, “Compositions for Broad Spectrum Topical Antimicrobials” (priority 2020, published 2022).

Details: thiol group of acetylcysteine

SMILES: CC(=O)N[C@@H](CS)C(=O)O [acetylcysteine]
- pKa of SH: 9.4
